Data on 30 compounds can be found in patent US10316028B2, “Orexin receptor antagonists” (Heptares Therapeutics Limited, priority 2012, dated 2019).

For this assay, the target named is T1, human Orexin-2 receptor (Homo sapiens, UniProt O43614).
T1 construct: expressed in transfected cells; host or cells: HEK293 cells (transient transfection, Genejuice); membranes
T1 sequence (O43614 1-444): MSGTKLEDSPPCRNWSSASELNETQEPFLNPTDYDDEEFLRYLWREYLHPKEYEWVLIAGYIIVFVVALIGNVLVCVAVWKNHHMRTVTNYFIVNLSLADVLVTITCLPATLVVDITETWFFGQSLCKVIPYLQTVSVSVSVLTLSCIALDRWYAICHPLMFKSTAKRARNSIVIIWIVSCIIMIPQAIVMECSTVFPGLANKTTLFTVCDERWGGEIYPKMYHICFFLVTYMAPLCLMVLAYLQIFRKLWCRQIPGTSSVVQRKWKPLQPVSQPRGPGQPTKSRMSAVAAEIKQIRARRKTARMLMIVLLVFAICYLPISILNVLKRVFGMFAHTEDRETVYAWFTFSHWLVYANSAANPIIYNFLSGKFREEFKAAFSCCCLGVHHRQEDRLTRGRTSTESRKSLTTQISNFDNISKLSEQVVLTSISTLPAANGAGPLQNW
The experiment in a line: 3H-EMPA radioligand binding assay. The note with it: 3H-EMPA displacement, membranes of HEK293 cells transfected with human Orexin-2 receptor; KI by Cheng-Prussoff; read-out: OX2 pKi ave (converted). How it is done: cDNA encoding the human Orexin-2 receptor was transfected into HEK293 cells using the transfection reagent Genejuice (Novagen). Forty-eight hours after transfection, cells were harvested and washed twice with ice cold phosphate-buffered saline. The pellet was resuspended in ice-cold buffer containing 20 mM Tris-HCl, pH 7.4, 1 mM EDTA and homogenised with an Ultraturax for 30 s at maximum speed. After centrifugation at 48,000 g for 30 min at 4° C., the pellet was resuspended and spun again. The final pellet was resuspended and frozen at −80° C. before use. Protein concentration was determined using the BCA protein assay method.
^3H-EMPA Radioligand Binding Assay
At the end of the incubation, membranes were filtered onto a unifilter, a 96-well white microplate with bonded GF/B filter pre-incubated with 0.5% polyethylenimine, with a Tomtec cell harvester and washed 4 times with distilled water. […] Radioactivity on the filter was counted (1 min) on a microbeta counter after addition of 50 µL of scintillation fluid. […] IC50 values were derived from the inhibition curve and the equilibrium dissociation constant (KI) values were calculated using the Cheng-Prussoff equation.
With `O=C1N(Cc2c(F)cccc2Cl)c2ccccc2S(=O)(=O)N1c1cc(F)ccc1F` [Example 46, 4-(2-chloro-6-fluorobenzyl)-2-(2,5-difluorophenyl)-2H-1,2,4-benzothiadiazin-3(4H)-one 1,1-dioxide], the Ki was 63.1 nM.

`CCc1cccc(N2C(=O)N(Cc3c(F)cccc3Cl)c3ccccc3S2(=O)=O)c1` [Example 47, 4-(2-chloro-6-fluorobenzyl)-2-(3-ethylphenyl)-2H-1,2,4-benzothiadiazin-3(4H)-one 1,1-dioxide]: the Ki was 2.51 nM.

As for `CC(C)c1ccc(N2C(=O)N(Cc3c(F)cccc3Cl)c3ccccc3S2(=O)=O)cc1` [Example 48, 4-(2-chloro-6-fluorobenzyl)-2-[4-(propan-2-yl)phenyl]-2H-1,2,4-benzothiadiazin-3(4H)-one 1,1-dioxide], the Ki is 3.72 nM.

Turning to `CSc1cccc(N2C(=O)N(Cc3c(F)cccc3Cl)c3ccccc3S2(=O)=O)c1` [Example 49, 4-(2-chloro-6-fluorobenzyl)-2-[3-(methylsulfanyl)phenyl]-2H-1,2,4-benzothiadiazin-3(4H)-one 1,1-dioxide], the Ki was 1.05 nM.

In the case of `CSc1cccc(N2C(=O)N(Cc3ccc(F)cc3Cl)c3ccccc3S2(=O)=O)c1` [Example 50, 4-(2-chloro-4-fluorobenzyl)-2-[3-(methylsulfanyl)phenyl]-2H-1,2,4-benzothiadiazin-3(4H)-one 1,1-dioxide], the Ki was 35.5 nM.

As to `CSc1cccc(N2C(=O)N(Cc3cc(C)ccc3C)c3ccccc3S2(=O)=O)c1` [Example 51, 4-(2,5-dimethylbenzyl)-2-[3-(methylsulfanyl)phenyl]-2H-1,2,4-benzothiadiazin-3(4H)-one 1,1-dioxide], the Ki is 17.8 nM.

As for `COC(=O)c1ccc(OC)c(CN2C(=O)N(c3cccc(SC)c3)S(=O)(=O)c3ccccc32)c1` [Example 52, methyl 3-({2-[3-(methylsulfanyl)phenyl]-1,1-dioxido-3-oxo-2,3-dihydro-4H-1,2,4-benzothiadiazin-4-yl}methyl)-4-methoxybenzoate], the Ki is 2.63 nM.

`Cc1ccc(N2C(=O)N(Cc3ccccc3F)c3ccccc3S2(=O)=O)cc1Cl` [Example 53, 4-(2-fluorobenzyl)-2-(3-chloro-4-methylphenyl)-2H-1,2,4-benzothiadiazin-3(4H)-one 1,1-dioxide]: the Ki was 31.6 nM.

Take `Cc1ccc(N2C(=O)N(Cc3ccccc3C)c3ccccc3S2(=O)=O)cc1Cl` [Example 54, 4-(2-methylbenzyl)-2-(3-chloro-4-methylphenyl)-2H-1,2,4-benzothiadiazin-3(4H)-one 1,1-dioxide]: the Ki is 43.7 nM.

`Cc1cc(C)cc(N2C(=O)N(Cc3ccccc3Cl)c3ccccc3S2(=O)=O)c1` [Example 55, 4-(2-chlorobenzyl)-2-(3,5-dimethylphenyl)-2H-1,2,4-benzothiadiazin-3(4H)-one 1,1-dioxide]: the Ki is 30.9 nM.

For the compound `Cc1cc(C)cc(N2C(=O)N(Cc3ccccc3F)c3ccccc3S2(=O)=O)c1` [Example 56, 4-(2-fluorobenzyl)-2-(3,5-dimethylphenyl)-2H-1,2,4-benzothiadiazin-3(4H)-one 1,1-dioxide], the Ki was 20.9 nM.

Turning to `Cc1ccc(N2C(=O)N(Cc3ccccc3F)c3ccccc3S2(=O)=O)cc1C` [Example 57, 4-(2-fluorobenzyl)-2-(3,4-dimethylphenyl)-2H-1,2,4-benzothiadiazin-3(4H)-one 1,1-dioxide], the Ki is 23.4 nM.

As for `O=C1N(Cc2ccccc2Cl)c2ccccc2S(=O)(=O)N1Cc1ccccc1` [Example 58, 2-benzyl-4-(2-chlorobenzyl)-2H-1,2,4-benzothiadiazin-3(4H)-one 1,1-dioxide], the Ki is 933 nM.

As to `Cc1ccc(N2C(=O)N(Cc3ccccc3Cl)c3ccccc3S2(=O)=O)cc1C` [Example 59, 4-(2-chlorobenzyl)-2-(3,4-dimethylphenyl)-2H-1,2,4-benzothiadiazin-3(4H)-one 1,1-dioxide], the Ki is 43.7 nM.

In the case of `COC(=O)c1ccc(OC)c(CN2C(=O)N(c3ccc(OC)c(OC)c3)S(=O)(=O)c3ccccc32)c1` [Example 60, methyl 3-{[2-(3,4-dimethoxyphenyl)-1,1-dioxido-3-oxo-2,3-dihydro-4H-1,2,4-benzothiadiazin-4-yl]methyl}-4-methoxybenzoate], the Ki is 40.7 nM.

For `CSc1cccc(N2C(=O)N(CC3CCC3)c3ccccc3S2(=O)=O)c1` [Example 61, 4-(Cyclobutylmethyl)-2-[3-(methylsulfanyl)phenyl]-2H-1,2,4-benzothiadiazin-3(4H)-one 1,1-dioxide], the Ki was 269 nM.

With `CSc1cccc(N2C(=O)N(CC3CCCCC3)c3ccccc3S2(=O)=O)c1` [Example 62, 4-(Cyclohexylmethyl)-2-[3-(methylsulfanyl)phenyl]-2H-1,2,4-benzothiadiazin-3(4H)-one 1,1-dioxide], the Ki was 871 nM.

In the case of `CSc1cccc(N2C(=O)N(C(C)c3ccccc3F)c3ccc(F)cc3S2(=O)=O)c1` (stereo not drawn) [Example 63, 7-Fluoro-4-[1-(2-fluorophenyl)ethyl]-2-[3-(methylsulfanyl)phenyl]-2H-1,2,4-benzothiadiazin-3(4H)-one 1,1-dioxide], the Ki was 832 nM.

For `O=C1N(Cc2c(F)cccc2Cl)c2ccccc2S(=O)(=O)N1CC1CCCCC1` [Example 64, 4-(2-Chloro-6-fluorobenzyl)-2-(cyclohexylmethyl)-2H-1,2,4-benzothiadiazin-3(4H)-one 1,1-dioxide], the Ki was 661 nM.

`N#Cc1ccc(CN2C(=O)N(Cc3c(F)cccc3F)c3ccccc3S2(=O)=O)cc1F` [Example 65, 4-{[4-(2,6-Difluorobenzyl)-1,1-dioxido-3-oxo-3,4-dihydro-2H-1,2,4-benzothiadiazin-2-yl]methyl}-2-fluorobenzonitrile]: the Ki is 200 nM.

On to `COc1cccc(CCN2C(=O)N(Cc3c(F)cccc3F)c3ccccc3S2(=O)=O)c1` [Example 66, 4-(2,6-Difluorobenzyl)-2-[2-(3-methoxyphenyl)ethyl]-2H-1,2,4-benzothiadiazin-3(4H)-one 1,1-dioxide], for which the Ki was 550 nM.

Turning to `COc1ccc(N2C(=O)N(Cc3ccccc3F)c3ccccc3S2(=O)=O)cc1OC` [Example 67, 2-(3,4-Dimethoxyphenyl)-4-(2-fluorobenzyl)-2H-1,2,4-benzothiadiazin-3(4H)-one 1,1-dioxide], the Ki was 7.08 nM.

Turning to `COc1ccc(N2C(=O)N(Cc3c(Cl)cccc3Cl)c3ccccc3S2(=O)=O)cc1OC` [Example 68, 4-(2,6-Dichlorobenzyl)-2-(3,4-dimethoxyphenyl)-2H-1,2,4-benzothiadiazin-3(4H)-one 1,1-dioxide], the Ki is 0.708 nM.

For the compound `COc1cc(OC)cc(N2C(=O)N(Cc3c(F)cccc3Cl)c3ccccc3S2(=O)=O)c1` [Example 69, 4-(2-Chloro-6-fluorobenzyl)-2-(3,5-dimethoxyphenyl)-2H-1,2,4-benzothiadiazin-3(4H)-one 1,1-dioxide], the Ki is 1.07 nM.

On to `COc1cc(OC)cc(N2C(=O)N(Cc3c(Cl)cccc3Cl)c3ccccc3S2(=O)=O)c1` [Example 70, 4-(2,6-Dichlorobenzyl)-2-(3,5-dimethoxyphenyl)-2H-1,2,4-benzothiadiazin-3(4H)-one 1,1-dioxide], for which the Ki was 2 nM.

Take `COc1ccc(N2C(=O)N(Cc3cccc(Cl)c3F)c3ccccc3S2(=O)=O)cc1OC` [Example 71, 4-(3-Chloro-2-fluorobenzyl)-2-(3,4-dimethoxyphenyl)-2H-1,2,4-benzothiadiazin-3(4H)-one 1,1-dioxide]: the Ki is 7.08 nM.

On to `COc1ccc(N2C(=O)N(Cc3ccc(Cl)cc3F)c3ccccc3S2(=O)=O)cc1OC` [Example 72, 4-(4-Chloro-2-fluorobenzyl)-2-(3,4-dimethoxyphenyl)-2H-1,2,4-benzothiadiazin-3(4H)-one 1,1-dioxide], for which the Ki is 10.5 nM.

As for `O=C1N(Cc2c(F)cccc2Cl)c2ccccc2S(=O)(=O)N1c1cccc(SC(F)(F)F)c1` [Example 73, 4-(2-Chloro-6-fluorobenzyl)-2-{3-[(trifluoromethyl)sulfanyl]phenyl}-2H-1,2,4-benzothiadiazin-3(4H)-one 1,1-dioxide], the Ki was 2.09 nM.

Turning to `CSc1cccc(N2C(=O)N(Cc3c(F)cccc3Cl)c3ccc(F)cc3S2(=O)=O)c1` [Example 74, 4-(2-Chloro-6-fluorobenzyl)-7-fluoro-2-[3-(methylsulfanyl)phenyl]-2H-1,2,4-benzothiadiazin-3(4H)-one 1,1-dioxide], the Ki was 11.7 nM.

On to `O=C1N(Cc2c(F)cccc2F)c2ccccc2S(=O)(=O)N1c1cccc(SC(F)(F)F)c1` [Example 75, 4-(2,6-Difluorobenzyl)-2-{3-[(trifluoromethyl)sulfanyl]phenyl}-2H-1,2,4-benzothiadiazin-3(4H)-one 1,1-dioxide], for which the Ki is 8.32 nM.
